# Data taken from ChEMBL document CHEMBL1201862, “PubChem BioAssay data set” (2004).
# Activity calls are given as the source filed them.
# Key:
# [1] = target: Glucose-6-phosphate 1-dehydrogenase (Homo sapiens, UniProt P11413); assay: human G6PD enzyme inhibitors, dose response, selectivity assay for P. falciparum G6PD inhibitor project, biochemical, fluorescence (AID 504792); format: functional
# [2] = target: T1, Voltage-gated N-type calcium channel alpha-1B subunit/Amyloid beta A4 precursor protein-binding family A member 1 (Homo sapiens, UniProt Q00975+Q02410); assay: disruptors of Mint-PDZ/N-type channel peptide interaction – biochemical, HTRF, SAR follow-up (AID 2489); format: functional
# [3] = target: T1, Voltage-gated N-type calcium channel alpha-1B subunit/Amyloid beta A4 precursor protein-binding family A member 1; format: protein assay
# [4] = target: T1, Voltage-gated N-type calcium channel alpha-1B subunit/Amyloid beta A4 precursor protein-binding family A member 1; format: protein assay; remark: listed apart in the source
# [5] = target: T1, Voltage-gated N-type calcium channel alpha-1B subunit/Amyloid beta A4 precursor protein-binding family A member 1; assay: disruptors of Mint-PDZ/N-type channel peptide interaction – biochemical, HTRF, set 2, SAR follow-up (AID 434980); format: functional
# [6] = target: Protein phosphatase methylesterase 1 (Homo sapiens, UniProt Q9Y570); assay: PME-1 inhibitor potency by in-gel ABPP, dose response, selectivity assay for PME-1 inhibitor project, cell lysate, mouse brain cytosol, FP-rhodamine, panel member PME-1 Assay Panel member description: Inhibition of endogenously expressed PME-1 (AID 2366)
# [7] = target: Scavenger receptor class B member 1 (Mus musculus, UniProt Q61009); assay: inhibitors of SR-BI mediated HDL lipid uptake, dose response, ldlA[mSR-BI] cells, fluorescence, cherry pick (AID 493194); format: functional, cell-based;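 also: cellular uptake of fluorescent DiI-labeled HDL measured as cell fluorescence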
# [8] = growth suppression of PTEN-null colon cells, dose response, cell-based, HCT116 PTEN knockout (AID 1047); format: functional;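 also: HCT116 colon tumor cells with PTEN knocked out; cells exposed to compound for 60 hours before readout; potency for loss of cell viability measured by luminescence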
# [9] = growth suppression of beta-catenin-knockout colon cells, dose response, cell-based, HCT116, human colon tumor (AID 1045); format: functional;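 also: HCT116 colon tumor cells with beta catenin knocked out; cells exposed to compound for 60 hours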
# [10] = target: Potassium voltage-gated channel subfamily KQT member 2 (Rattus norvegicus, UniProt O88943); assay: retigabine-insensitive KCNQ2 potentiators, concentration-response, dose response, cell-based, retigabine-insensitive compounds (AID 2654); format: functional
# [11] = target: Bifunctional protein GlmU (Mycobacterium tuberculosis, UniProt P9WMN3); assay: Inhibitors of Mycobacterial Glucosamine-1-phosphate acetyl transferase (GlmU). Secondary screen.; parameters: species or system Mycobacterium tuberculosis H37Rv
# [12] = target: T2, Carboxy-terminal domain RNA polymerase II polypeptide A small phosphatase 1 (Homo sapiens, UniProt Q9GZU7); assay: inhibitors of CTDSP1, concentration-response testing, biochemical assay, absorbance-based, actives from ultra-high-throughput screening (AID 540297); format: functional
# T2 sequence (Q9GZU7 whole entry): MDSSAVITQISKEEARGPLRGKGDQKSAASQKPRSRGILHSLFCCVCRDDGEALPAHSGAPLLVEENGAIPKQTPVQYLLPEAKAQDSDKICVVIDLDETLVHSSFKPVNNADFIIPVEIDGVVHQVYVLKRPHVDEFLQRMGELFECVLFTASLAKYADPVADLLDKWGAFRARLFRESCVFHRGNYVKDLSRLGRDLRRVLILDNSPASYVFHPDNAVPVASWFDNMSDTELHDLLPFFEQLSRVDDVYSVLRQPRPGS
# Bcl-2-like protein 10 = Bcl-2-like protein 10 (Homo sapiens, UniProt Q9HD36); assay: displacers of TR3 peptide from Bcl-B, primary screen, selectivity assay for Bfl-1 inhibitor project, biochemical, fluorescence polarization, FITC-TR3 peptide (AID 748);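 also: fluorescence polarization from a fluorescein-labelled TR3 peptide binding purified Bcl-B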
# [13] = target: T3, Histone-lysine N-methyltransferase NSD2 (Homo sapiens, UniProt O96028); format: biochemical
# T3 sequence (O96028 whole entry): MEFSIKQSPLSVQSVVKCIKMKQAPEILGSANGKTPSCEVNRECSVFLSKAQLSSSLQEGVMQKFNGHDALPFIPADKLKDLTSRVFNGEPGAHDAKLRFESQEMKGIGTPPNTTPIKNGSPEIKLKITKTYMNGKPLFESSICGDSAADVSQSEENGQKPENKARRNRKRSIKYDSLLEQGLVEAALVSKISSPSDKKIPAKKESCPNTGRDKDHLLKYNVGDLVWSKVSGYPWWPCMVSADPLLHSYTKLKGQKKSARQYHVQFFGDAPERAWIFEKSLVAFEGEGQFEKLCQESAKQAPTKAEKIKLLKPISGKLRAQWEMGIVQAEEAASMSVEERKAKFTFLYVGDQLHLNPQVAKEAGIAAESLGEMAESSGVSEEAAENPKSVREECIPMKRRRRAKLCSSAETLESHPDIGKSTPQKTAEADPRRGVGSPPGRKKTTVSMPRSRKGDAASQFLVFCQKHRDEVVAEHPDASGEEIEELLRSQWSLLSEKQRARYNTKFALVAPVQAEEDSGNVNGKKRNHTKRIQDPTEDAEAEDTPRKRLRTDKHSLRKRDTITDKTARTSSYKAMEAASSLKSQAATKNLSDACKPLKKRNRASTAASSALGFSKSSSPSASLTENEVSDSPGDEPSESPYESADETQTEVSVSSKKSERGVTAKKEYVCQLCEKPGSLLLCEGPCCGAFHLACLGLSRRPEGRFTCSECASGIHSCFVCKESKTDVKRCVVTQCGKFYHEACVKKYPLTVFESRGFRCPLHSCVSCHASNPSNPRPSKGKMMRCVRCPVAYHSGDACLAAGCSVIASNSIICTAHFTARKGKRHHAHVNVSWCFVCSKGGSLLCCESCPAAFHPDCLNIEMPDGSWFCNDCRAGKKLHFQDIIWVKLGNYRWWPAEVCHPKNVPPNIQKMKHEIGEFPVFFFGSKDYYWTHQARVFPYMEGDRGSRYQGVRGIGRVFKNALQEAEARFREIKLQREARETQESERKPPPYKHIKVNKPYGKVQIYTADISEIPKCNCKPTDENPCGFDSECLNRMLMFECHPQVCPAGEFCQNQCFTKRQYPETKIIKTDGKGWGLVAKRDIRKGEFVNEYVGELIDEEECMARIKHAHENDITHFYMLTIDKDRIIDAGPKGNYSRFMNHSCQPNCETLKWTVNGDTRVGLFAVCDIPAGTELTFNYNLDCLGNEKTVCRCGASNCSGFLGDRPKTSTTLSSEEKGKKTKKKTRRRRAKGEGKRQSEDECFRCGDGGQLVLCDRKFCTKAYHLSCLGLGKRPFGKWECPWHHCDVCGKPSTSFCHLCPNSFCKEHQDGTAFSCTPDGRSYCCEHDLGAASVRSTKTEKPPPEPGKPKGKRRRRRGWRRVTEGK
# [14] = target: Glutathione S-transferase omega-1 (Homo sapiens, UniProt P78417); assay: GSTO1 inhibitor potency, recombinant enzyme, late-stage follow-up, biochemical, SE-Rh probe, in-gel fluorescence, powder samples, set 2 (AID 463142); format: functional
# Protein skinhead-1 = target: T4, Protein skinhead-1 (Caenorhabditis elegans, UniProt P34707); format: functional
# T4 sequence (P34707 whole entry): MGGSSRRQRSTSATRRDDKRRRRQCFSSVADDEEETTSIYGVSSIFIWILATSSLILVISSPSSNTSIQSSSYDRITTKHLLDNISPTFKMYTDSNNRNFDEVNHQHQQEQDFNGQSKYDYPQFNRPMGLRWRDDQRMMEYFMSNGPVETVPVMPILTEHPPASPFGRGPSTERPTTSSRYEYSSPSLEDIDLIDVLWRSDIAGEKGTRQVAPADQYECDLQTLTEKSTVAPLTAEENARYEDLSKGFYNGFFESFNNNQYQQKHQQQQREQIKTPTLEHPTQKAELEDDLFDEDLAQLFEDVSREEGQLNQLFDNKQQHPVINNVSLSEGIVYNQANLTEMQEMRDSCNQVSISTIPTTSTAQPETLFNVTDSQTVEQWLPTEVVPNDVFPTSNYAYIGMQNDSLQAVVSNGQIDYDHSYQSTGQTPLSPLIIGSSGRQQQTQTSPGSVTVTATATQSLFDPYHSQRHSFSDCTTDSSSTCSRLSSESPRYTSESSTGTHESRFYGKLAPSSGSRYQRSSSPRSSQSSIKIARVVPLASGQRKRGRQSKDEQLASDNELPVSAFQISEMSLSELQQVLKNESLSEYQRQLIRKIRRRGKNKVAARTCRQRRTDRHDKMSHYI
# [15] = target: T5, Ubiquitin-conjugating enzyme E2 N (Homo sapiens, UniProt P61088); format: functional;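 also: Dose-response confirmation in a TR-FRET assay detecting UBC13-driven polyubiquitin chain formation, inhibition measured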
# T5 sequence (P61088 whole entry): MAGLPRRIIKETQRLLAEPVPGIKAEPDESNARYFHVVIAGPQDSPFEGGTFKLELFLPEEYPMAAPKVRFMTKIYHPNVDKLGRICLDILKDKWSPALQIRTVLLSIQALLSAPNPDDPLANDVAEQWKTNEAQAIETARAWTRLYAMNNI
# [16] = target: Acyl-homoserine lactone acylase PvdQ (Pseudomonas aeruginosa (strain LESB58), UniProt Q9I194); assay: P. aeruginosa PvdQ acylase inhibitors, dose response, biochemical, fluorescence, plate reader and imaging, cherry-picks (AID 493231)
# ORF 73 = ORF 73 (Human herpesvirus 8, UniProt O40947); assay: inhibitors of C-LANA binding to LBS DNA, dose response, biochemical, fluorescence polarization, cherry-picked samples (AID 504725); parameters: species or system Human gammaherpesvirus 8;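 also: fluorescence polarization of a labeled DNA duplex reporting LANA DNA binding; potency is for inhibitors that block LANA binding to the DNA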
# [17] = target: T6, G-protein coupled receptor 55 (Homo sapiens, UniProt Q9Y2T6); assay: GPR55 agonists via beta-arrestin recruitment, primary screen, imaging, U2OS cells, beta-arrestin-GFP redistribution (AID 1961); format: functional
# [18] = viability loss in HRASV12 DRD fibroblasts, dose response, cell-based, DRD BJ fibroblasts, dry powder (AID 493049); format: functional
# [19] = cytotoxicity in BJeHLT fibroblasts, dose response, counter-screen for Ras selective lethality project, BJeHLT cells, dry powder (AID 493052); format: functional, cell-based; conditions: Homo sapiens
# [20] = cytotoxicity in BJeH fibroblasts, dose response, counter-screen for Ras selective lethality project, BJeH cells, dry powder (AID 493054); format: functional, cell-based
# [21] = viability loss in BJeLR (HRASV12) cells, primary screen, Ras selective lethality project, cell-based, Alamar Blue, dry powder (AID 493045); format: functional
# [22] = target: T7, Mannose-6-phosphate isomerase (Homo sapiens, UniProt P34949); assay: PMI enzyme inhibitors, confirmation, biochemical, fluorescence intensity (AID 1535)
# T7 sequence (P34949 whole entry): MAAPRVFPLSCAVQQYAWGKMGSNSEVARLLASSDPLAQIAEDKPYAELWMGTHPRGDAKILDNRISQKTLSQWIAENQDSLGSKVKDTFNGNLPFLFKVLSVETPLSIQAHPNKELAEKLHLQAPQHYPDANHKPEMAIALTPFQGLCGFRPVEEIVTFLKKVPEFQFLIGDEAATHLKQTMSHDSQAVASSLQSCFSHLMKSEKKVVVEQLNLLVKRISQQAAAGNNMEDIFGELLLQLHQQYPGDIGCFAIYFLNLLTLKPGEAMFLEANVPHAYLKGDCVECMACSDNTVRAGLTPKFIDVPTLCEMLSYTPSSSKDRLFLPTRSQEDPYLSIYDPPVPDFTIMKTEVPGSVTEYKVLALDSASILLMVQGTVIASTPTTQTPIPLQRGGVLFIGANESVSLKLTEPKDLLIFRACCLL
# [23] = target: Phosphoethanolamine/phosphocholine phosphatase (Homo sapiens, UniProt Q8TCT1); assay: SAR assay for compounds that inhibit PHOSPHO1. [Related pubchem assays (depositor defined):AID1545, AID1565, AID1574]
# Phosphomannomutase 2 = Phosphomannomutase 2 (Homo sapiens, UniProt O15305); assay: Counter screen SAR assay for PMM2 inhibitors via a fluorescence intensity assay. [Related pubchem assays (depositor defined):AID1545, AID1574]
# INS1 = assay: beta cell apoptosis inhibitors, cytokine rescue, dose response, luminescence, retest (AID 449756); format: functional, cell-based; conditions: Rattus norvegicus;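 also: cell death triggered by IL-1 beta plus TNF-alpha plus IFN-gamma mixture; protective hits raise ATP signal compared with cytokine alone wells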
# [24] = C. albicans growth with fluconazole, confirmation, fluorescence, retest (AID 2467); format: functional, cell-based
# [25] = target: T6, G-protein coupled receptor 55; assay: GPR55 antagonists blocking LPI-driven arrestin recruitment, primary screen, imaging, U2OS, beta-arrestin-GFP, LPI agonist (AID 2013); format: functional;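 also: antagonist potency measured as reduced agonist-driven arrestin aggregation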
# [26] = target: G-protein coupled receptor 35 (Homo sapiens, UniProt Q9HC97); assay: GPR35 antagonists blocking zaprinast-driven arrestin recruitment, primary screen, imaging, U2OS, beta-arrestin-GFP, zaprinast agonist (AID 2058); format: functional;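 also: antagonist potency meaning inhibition of agonist-induced arrestin redistribution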
# [27] = NIH-3T3 fibroblast cytotoxicity, dose response, cytotoxicity control, cell-based, fluorescence, Alamar Blue, secondary assay (AID 2327); format: functional;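 also: NIH-3T3 mouse fibroblasts cultured with fluconazole at 8 µg/mL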
# T1 sequence (Q00975 whole entry): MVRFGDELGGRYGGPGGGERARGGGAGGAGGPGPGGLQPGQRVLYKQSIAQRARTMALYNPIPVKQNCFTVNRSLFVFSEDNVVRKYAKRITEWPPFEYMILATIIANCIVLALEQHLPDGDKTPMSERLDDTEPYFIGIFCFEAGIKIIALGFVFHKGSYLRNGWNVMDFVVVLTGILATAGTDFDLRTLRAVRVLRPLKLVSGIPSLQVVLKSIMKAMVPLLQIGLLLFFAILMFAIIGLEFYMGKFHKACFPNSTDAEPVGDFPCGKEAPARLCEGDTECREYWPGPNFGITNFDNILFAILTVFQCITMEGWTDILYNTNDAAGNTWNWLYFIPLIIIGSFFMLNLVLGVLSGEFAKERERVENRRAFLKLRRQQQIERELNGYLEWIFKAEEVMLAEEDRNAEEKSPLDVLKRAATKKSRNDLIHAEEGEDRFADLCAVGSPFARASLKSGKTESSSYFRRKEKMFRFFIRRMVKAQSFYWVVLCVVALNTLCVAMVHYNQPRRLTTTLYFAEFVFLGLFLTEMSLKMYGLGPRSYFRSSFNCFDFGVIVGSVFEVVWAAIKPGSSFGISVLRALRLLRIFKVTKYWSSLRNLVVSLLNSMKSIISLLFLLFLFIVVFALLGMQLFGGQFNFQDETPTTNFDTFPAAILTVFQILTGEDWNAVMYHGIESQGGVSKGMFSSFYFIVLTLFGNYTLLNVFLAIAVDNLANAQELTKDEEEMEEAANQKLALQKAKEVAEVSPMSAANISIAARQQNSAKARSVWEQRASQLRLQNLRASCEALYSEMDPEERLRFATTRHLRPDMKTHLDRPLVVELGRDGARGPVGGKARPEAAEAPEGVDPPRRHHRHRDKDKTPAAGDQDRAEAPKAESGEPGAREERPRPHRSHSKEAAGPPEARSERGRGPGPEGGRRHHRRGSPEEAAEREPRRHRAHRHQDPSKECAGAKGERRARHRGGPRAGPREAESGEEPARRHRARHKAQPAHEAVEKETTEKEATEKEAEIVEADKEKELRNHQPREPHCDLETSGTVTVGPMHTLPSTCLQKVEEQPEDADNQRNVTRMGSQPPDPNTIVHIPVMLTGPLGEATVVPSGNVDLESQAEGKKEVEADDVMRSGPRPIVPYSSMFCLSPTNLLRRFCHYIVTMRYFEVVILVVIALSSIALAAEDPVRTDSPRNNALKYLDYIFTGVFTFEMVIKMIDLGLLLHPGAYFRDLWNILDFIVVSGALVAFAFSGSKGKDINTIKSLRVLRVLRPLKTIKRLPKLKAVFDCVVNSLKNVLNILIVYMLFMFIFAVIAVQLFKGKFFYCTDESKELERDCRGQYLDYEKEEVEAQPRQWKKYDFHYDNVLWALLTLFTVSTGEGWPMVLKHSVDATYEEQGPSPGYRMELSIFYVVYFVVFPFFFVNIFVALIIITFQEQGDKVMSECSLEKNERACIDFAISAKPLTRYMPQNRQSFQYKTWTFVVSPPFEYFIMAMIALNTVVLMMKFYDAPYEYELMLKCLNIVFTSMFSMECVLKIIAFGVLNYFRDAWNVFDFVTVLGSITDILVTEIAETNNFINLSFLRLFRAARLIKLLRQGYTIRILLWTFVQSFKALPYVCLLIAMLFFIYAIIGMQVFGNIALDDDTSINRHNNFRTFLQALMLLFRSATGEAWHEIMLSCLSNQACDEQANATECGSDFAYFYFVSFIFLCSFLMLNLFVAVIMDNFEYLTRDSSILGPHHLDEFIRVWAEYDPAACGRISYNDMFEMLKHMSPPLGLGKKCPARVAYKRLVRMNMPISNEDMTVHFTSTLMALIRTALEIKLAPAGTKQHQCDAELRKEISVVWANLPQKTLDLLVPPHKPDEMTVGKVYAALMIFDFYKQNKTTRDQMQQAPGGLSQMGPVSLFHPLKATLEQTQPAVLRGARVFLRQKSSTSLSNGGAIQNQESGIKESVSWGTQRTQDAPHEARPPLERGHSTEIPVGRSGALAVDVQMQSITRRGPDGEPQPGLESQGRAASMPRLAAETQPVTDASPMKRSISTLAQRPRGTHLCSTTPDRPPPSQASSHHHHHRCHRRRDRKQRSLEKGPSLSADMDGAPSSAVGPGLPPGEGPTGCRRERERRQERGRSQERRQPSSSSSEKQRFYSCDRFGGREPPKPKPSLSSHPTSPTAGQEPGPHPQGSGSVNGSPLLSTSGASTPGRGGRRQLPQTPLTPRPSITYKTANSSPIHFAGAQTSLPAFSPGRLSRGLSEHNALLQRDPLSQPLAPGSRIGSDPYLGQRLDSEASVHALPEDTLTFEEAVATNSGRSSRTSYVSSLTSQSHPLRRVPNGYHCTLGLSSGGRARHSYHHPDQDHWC
# T1 sequence (Q02410 whole entry): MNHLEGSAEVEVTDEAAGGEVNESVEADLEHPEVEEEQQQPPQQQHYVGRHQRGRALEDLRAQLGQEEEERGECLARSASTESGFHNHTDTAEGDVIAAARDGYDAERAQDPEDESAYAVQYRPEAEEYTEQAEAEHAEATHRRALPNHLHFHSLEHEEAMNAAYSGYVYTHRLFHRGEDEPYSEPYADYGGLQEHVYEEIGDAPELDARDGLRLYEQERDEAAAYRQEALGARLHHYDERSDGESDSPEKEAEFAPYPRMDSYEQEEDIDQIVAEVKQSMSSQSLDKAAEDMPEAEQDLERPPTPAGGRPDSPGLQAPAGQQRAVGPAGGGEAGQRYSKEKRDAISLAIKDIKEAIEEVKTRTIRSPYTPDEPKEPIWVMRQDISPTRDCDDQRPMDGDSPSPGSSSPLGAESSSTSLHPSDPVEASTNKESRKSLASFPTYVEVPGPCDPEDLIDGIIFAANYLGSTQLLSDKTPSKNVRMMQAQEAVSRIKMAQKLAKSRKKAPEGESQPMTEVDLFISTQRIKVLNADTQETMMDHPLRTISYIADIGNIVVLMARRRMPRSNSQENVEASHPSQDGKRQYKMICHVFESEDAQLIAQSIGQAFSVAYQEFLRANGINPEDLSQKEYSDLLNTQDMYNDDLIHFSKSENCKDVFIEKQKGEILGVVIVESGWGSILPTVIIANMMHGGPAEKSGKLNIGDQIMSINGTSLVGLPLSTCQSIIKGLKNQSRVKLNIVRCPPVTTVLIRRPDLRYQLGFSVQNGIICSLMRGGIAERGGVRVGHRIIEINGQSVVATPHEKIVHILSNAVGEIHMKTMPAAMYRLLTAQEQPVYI
# T6 sequence (Q9Y2T6 whole entry): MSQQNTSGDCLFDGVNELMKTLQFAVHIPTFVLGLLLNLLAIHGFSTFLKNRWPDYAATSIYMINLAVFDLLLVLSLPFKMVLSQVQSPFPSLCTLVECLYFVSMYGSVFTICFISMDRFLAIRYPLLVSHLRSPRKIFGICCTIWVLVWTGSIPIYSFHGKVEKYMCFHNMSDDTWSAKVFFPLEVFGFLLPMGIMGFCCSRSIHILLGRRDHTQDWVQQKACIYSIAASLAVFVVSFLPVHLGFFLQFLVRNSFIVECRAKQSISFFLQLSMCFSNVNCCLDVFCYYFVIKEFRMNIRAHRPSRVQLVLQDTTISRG
# Sequence of Glucose-6-phosphate 1-dehydrogenase (P11413 whole entry): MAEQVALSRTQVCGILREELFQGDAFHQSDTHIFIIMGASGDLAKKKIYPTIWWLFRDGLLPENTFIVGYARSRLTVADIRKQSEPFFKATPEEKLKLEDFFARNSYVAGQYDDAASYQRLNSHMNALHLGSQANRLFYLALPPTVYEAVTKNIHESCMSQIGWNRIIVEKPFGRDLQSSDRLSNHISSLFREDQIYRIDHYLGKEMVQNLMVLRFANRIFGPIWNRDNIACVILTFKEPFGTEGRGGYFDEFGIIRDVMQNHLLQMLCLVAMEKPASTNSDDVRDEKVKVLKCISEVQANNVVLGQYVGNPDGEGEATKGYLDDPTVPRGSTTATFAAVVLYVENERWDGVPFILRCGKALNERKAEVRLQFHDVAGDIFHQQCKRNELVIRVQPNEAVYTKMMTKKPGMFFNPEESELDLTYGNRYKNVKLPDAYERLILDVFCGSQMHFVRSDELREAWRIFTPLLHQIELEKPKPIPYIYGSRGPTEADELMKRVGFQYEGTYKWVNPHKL
# Sequence of Glutathione S-transferase omega-1 (P78417 whole entry): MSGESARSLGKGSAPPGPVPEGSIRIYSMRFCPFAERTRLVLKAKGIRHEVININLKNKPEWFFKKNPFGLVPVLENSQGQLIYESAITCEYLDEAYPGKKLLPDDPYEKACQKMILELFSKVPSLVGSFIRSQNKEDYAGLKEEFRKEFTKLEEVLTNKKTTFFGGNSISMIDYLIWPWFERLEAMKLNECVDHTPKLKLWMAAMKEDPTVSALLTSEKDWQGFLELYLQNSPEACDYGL
# Sequence of Acyl-homoserine lactone acylase PvdQ (Q9I194 24-193 limits assumed): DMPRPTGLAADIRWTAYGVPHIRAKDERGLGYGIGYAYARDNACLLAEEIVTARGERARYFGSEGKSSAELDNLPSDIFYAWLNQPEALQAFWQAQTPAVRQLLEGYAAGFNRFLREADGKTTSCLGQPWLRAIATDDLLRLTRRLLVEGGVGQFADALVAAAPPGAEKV
# Sequence of Acyl-homoserine lactone acylase PvdQ (Q9I194 217-762 limits assumed): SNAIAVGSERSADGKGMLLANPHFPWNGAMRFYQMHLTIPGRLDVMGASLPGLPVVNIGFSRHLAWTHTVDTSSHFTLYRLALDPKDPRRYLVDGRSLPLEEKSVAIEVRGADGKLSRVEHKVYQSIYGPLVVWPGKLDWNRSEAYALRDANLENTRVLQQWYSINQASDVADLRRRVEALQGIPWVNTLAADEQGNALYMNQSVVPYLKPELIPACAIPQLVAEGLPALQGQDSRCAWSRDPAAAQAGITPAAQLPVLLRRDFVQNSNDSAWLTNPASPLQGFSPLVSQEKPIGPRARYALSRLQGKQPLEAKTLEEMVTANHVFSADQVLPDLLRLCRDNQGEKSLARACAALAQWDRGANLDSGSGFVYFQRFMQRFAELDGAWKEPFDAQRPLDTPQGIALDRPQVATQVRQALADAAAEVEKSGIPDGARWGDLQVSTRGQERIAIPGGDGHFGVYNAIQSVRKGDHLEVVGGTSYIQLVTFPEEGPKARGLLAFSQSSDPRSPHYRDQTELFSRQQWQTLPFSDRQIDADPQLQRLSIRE
compound,measurement,setting,value
Cc1ccc(/C=C/C(=O)NCc2ccc(S(N)(=O)=O)cc2)o1,IC50,[1],> 80 µM (inactive)
same,IC50,[2],3.34 µM (active)
same,IC50,[3],8.37 µM (active)
same,IC50,[4],3.12 µM (active)
same,IC50,[5],4.23 µM (active)
CCCCS(=O)(=O)n1cccc1/C=C(\C#N)S(C)(=O)=O,IC50,[6],> 20 µM (inactive)
COc1cc(C2CC(=O)c3c([nH]c(C(=O)OCCOC(C)C)c3C)C2)cc(OC)c1OC (stereo not drawn),AC50,[7],18 µM (active)
same,EC50,[8],38.4 µM (active)
same,EC50,[9],31 µM (active)
Cc1ccc(NC(=O)Nc2cccnc2)cc1C,EC50,[10],13.4 µM (active)
O=C(c1coc(=O)c(Br)c1)N1CCOCC1,IC50,[11],88.3 µM (active)
same,IC50,[12],7.34 µM (active)
same,IC50,Bcl-2-like protein 10,34 µM (active)
same,AC50,[13],12.1 µM (active)
O=C(CCl)N(CCCCNC(=O)C(F)(F)F)c1ccc([N+](=O)[O-])cc1,IC50,[14],0.012 µM (active)
Cc1cccn2c(=O)c(C=O)c(N3CCCCCC3)nc12,IC50,Protein skinhead-1,> 100 µM (inactive)
same,IC50,[15],> 20 µM (inactive)
same,AC50,[16],24.8 µM (active)
NC(S)=NN=Cc1ccc(-c2ccc(S(=O)(=O)Nc3ncccn3)cc2)o1,AC50,ORF 73,97.3 µM (active)
same,AC50,[13],15.3 µM (active)
O=C(c1ccco1)N1CCN(c2ncnc3c2nnn3Cc2ccccc2Cl)CC1,EC50,[17],13.7 µM (inactive)
COc1ccc(N(C(=O)CCl)C(C(=O)NCCc2ccccc2)C(C)C)cc1Cl (stereo not drawn),AC50,[18],0.887 µM (active)
same,AC50,[19],1.3 µM (active)
same,AC50,[20],1.81 µM (active)
same,AC50,[21],0.895 µM (active)
O=c1c2ccc(F)cc2sn1-c1cc(Cl)c(Cl)cc1Cl,IC50,[22],> 50 µM (inactive)
same,IC50,[23],0.563 µM (active)
same,IC50,Phosphomannomutase 2,> 100 µM (inactive)
COc1ccc(C)cc1Nc1n[n+](-c2ccccc2)c(-c2ccc(N(C)C)cc2)s1,AC50,INS1,2.53 µM (active)
same,EC50,[24],2.27 µM (active)
same,IC50,[25],3.42 µM (active)
same,IC50,[26],3.54 µM (active)
same,EC50,[27],> 150 µM (inactive)
